Read-outs that look alike come from different tables or passages of the source.
How the values were obtained:
[1] = tested on: Klebsiella pneumoniae expressing VIM-1 (IHMA599644); type: cell-based; settings: VIM-1 strain IHMA599644, with imipenem 1 μg/ml, 95% inhibition of growth
How it was run: (§1)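 Growth by absorbance after 22–24 h at 35°C defined the read-out, with imipenem fixed at 1 μg/ml alongside compound. Inocula came from overnight blood-agar colonies at 35°C, resuspended in saline and diluted 1:100 in 1.1×CAMHB.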

[2] = tested on: Serratia marcescens expressing IMP-1 (CL5741); type: cell-based; settings: IMP-1 strain CL5741, with imipenem 1 μg/ml, 95% inhibition of growth
How it was run: as §1

[3] = tested on: Escherichia coli expressing NDM-1 (CLB30005, CLB30016); type: cell-based; settings: NDM-1 strain, with imipenem 1 μg/ml, 95% inhibition of growth
How it was run: as §1

[4] = molecular target: VIM-1 (Pseudomonas aeruginosa (strain ATCC 15692 / DSM 22644 / CIP 104116 / JCM 14847 / LMG 12228 / 1C / PRS 101 / PAO1), UniProt A0A0F7KYQ8); assay: biochemical; settings: CCF2-FA substrate, 30 pM enzyme, 2 hours at 25° C.
How it was run: (§2)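 IC50 values derive from 4-parameter fits of percent inhibition against inhibitor concentration on semi-log axes. Activity was monitored by fluorescence with the CCF2-FA substrate after a 2-hour, 25° C incubation of compound, enzyme and substrate.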

[5] = molecular target: IMP-1 (Serratia marcescens, UniProt P52699); assay: biochemical; type: biochemical; settings: fluorescence assay, CCF2-FA substrate, 2 pM enzyme, 2 hours at 25° C.; read-out: IMP-1 IC50
IMP-1, sequence (P52699 whole entry, looked up, species assumed): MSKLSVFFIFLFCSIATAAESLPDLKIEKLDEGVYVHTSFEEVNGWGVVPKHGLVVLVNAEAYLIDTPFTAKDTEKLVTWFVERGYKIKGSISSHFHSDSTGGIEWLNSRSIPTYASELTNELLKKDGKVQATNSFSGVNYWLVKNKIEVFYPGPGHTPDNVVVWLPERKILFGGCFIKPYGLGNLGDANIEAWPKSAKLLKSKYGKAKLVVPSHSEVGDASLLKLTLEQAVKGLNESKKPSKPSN
How it was run: as §2

[6] = molecular target: NDM-1 (Klebsiella pneumoniae, UniProt C7C422); assay: biochemical; type: biochemical; settings: fluorescence assay, CCF2-FA substrate, 1 pM enzyme, 2 hours at 25° C.; read-out: NDM-1 IC50
NDM-1, sequence (C7C422 whole entry, looked up, species assumed): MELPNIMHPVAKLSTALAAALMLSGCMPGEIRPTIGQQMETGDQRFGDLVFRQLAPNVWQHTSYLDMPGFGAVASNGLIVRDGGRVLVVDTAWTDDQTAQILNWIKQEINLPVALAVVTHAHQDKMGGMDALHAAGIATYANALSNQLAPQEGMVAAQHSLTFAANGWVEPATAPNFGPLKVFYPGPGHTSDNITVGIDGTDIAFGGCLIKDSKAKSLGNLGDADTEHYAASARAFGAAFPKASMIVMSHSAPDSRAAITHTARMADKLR
How it was run: as §2

[7] = tested on: Pseudomonas aeruginosa efflux− (MB9799), IMP-1; type: cell-based; settings: concentration restoring susceptibility to imipenem at 2 μg/mL in the presence of a class A, C, D serine β-lactamase inhibitor closely related to relebactam
How it was run: (§3)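 PAO1 pair, broth microdilution; fixed β-lactam (imipenem/ceftazidime) at ~CLSI breakpoint + fixed class A/C BLI for AmpC; serial MBLi titration; endpoint = MBLi conc. restoring susceptibility; MB9798:MB9799 ratio = efflux liability.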

[8] = tested on: Pseudomonas aeruginosa MB9798 vs MB9799; settings: ratio MITC95 PA_9798/MITC95 PA_9799
How it was run: as §3

[9] = tested on: Pseudomonas aeruginosa efflux+ (MB9798), IMP-1; type: cell-based; settings: concentration restoring susceptibility to imipenem at 2 μg/mL in the presence of a class A, C, D serine β-lactamase inhibitor closely related to relebactam
How it was run: as §3

[10] = fluorescence assay, read-out: VIM-1 IC50

SMILES | Klebsiella pneumoniae MITC95 [1] [µM] | Serratia marcescens MITC95 [2] [µM] | Escherichia coli MITC95 [3] [µM] | IC50 ([4]; VIM-1 IC50, fluorescence assay) [nM] | IC50 [5] [nM] | IC50 [6] [nM] | P. aeruginosa expressing IMP-1, efflux − (MB9799) MITC95 [7] [µM] | Efflux ratio [8] | P. aeruginosa expressing IMP-1, efflux + (MB9798) MITC95 [9] [µM] | IC50 [4, 10] [nM]
NCCNS(=O)(=O)c1ccc(-c2cccc3ccc(N)nc23)c(-c2nn[nH]n2)c1S(N)(=O)=O [Example 355, N1-(2-aminoethyl)-4-(2-aminoquinolin-8-yl)-3-(2H-tetrazol-5-yl)benzene-1,2-disulfonamide] | 1.563 | 0.7813 | 0.1953 | 0.141 | 0.2 | 0.0509 | 0.7813 | 1.00 | 0.7813 | 
NCCNS(=O)(=O)c1ccc(-c2cccc(SC[C@H](O)CN)c2)c(-c2nn[nH]n2)c1S(N)(=O)=O [Example 356, (R)-3′-((3-amino-2-hydroxypropyl)thio)-N4-(2-aminoethyl)-2-(2H-tetrazol-5-yl)-[1,1′-biphenyl]-3,4-disulfonamide] | 0.7813 | 0.7813 | 0.7813 | 0.244 | 1.41 | 1.82 | 0.3906 | 2.00 | 0.7813 | 
NCCNS(=O)(=O)c1ccc(-c2cccc(SC[C@@H](O)CN)c2)c(-c2nn[nH]n2)c1S(N)(=O)=O [Example 357, (S)-5′-(3-amino-2-hydroxypropylthio)-N4-(2-aminoethyl)-2-(2H-tetrazol-5-yl)biphenyl-3,4-disulfonamide] | 0.7813 | 0.7813 | 0.7813 | 0.224 | 1.21 | 1.26 | 0.3906 | 2.00 | 0.7813 | 
NCCNS(=O)(=O)c1ccc(-c2cccnc2N)c(-c2nn[nH]n2)c1S(N)(=O)=O [Example 358, N1-(2-aminoethyl)-4-(2-aminopyridin-3-yl)-3-(2H-tetrazol-5-yl)benzene-1,2-disulfonamide] | 1.563 | 0.3906 | 0.2441 |  | 4.05 | 0.319 | 0.7813 | 2.00 | 1.563 | 0.205
NCCNS(=O)(=O)c1ccc(-c2cnc3cc[nH]c3c2)c(-c2nn[nH]n2)c1S(N)(=O)=O [Example 359, N1-(2-aminoethyl)-4-(1H-pyrrolo[3,2-b]pyridin-6-yl)-3-(2H-tetrazol-5-yl)benzene-1,2-disulfonamide] | 1.563 | 0.3906 | 0.09766 |  | 1.61 | 0.154 | 0.7813 | 2.00 | 1.563 | 0.254
